Article PMC5218480 (PLoS ONE, 2017)

System: MV-4-11 cells
Assay: Gene expression microarray analysis (Affymetrix PrimeView) and GSEA
Assay type: cell-based, human
Set-up: RFU PODN (11730768_x_at) / Fold change /veh PODN (11730768_x_at) / RFU LINC00158 (11744669_a_at) / Fold change /veh LINC00158 (11744669_a_at) / RFU DUSP10 (11751237_a_at) / Fold change /veh DUSP10 (11751237_a_at) / RFU ID3 (11757404_x_at) / Fold change /veh ID3 (11757404_x_at) / RFU PLEKHG5 (11737974_s_at) / Fold change /veh PLEKHG5 (11737974_s_at) / RFU LRRC4B (11730491_at) / Fold change /veh LRRC4B (11730491_at) / RFU GIMAP4 (11747438_a_at) / Fold change /veh GIMAP4 (11747438_a_at) / RFU KRT8 (11758183_x_at) / Fold change /veh KRT8 (11758183_x_at) / RFU CNN1 (11734310_a_at) / Fold change /veh CNN1 (11734310_a_at) / RFU VPS37D (11726825_at) / Fold change /veh VPS37D (11726825_at) / RFU C10orf10 (11716522_x_at) / Fold change /veh C10orf10 (11716522_x_at) / RFU KIR2DL2 /// KIR2DL4 /// KIR2DL5A /// KIR2DL5B /// KIR2DS1 /// KIR2DS2 /// KIR2DS3 /// KIR2DS4 /// KIR3DL3 /// KIR3DL3 /// KIR3DS1 (11738374_at) / Fold change /veh KIR2DL2 /// KIR2DL4 /// KIR2DL5A /// KIR2DL5B /// KIR2DS1 /// KIR2DS2 /// KIR2DS3 /// KIR2DS4 /// KIR3DL3 /// KIR3DL3 /// KIR3DS1 (11738374_at) / RFU C1QL1 (11718748_at) / Fold change /veh C1QL1 (11718748_at) / RFU TMPRSS4 (11747572_a_at) / Fold change /veh TMPRSS4 (11747572_a_at) / RFU HAMP (11756126_x_at) / Fold change /veh HAMP (11756126_x_at) / RFU RNFT2 (11725882_a_at) / Fold change /veh RNFT2 (11725882_a_at) / RFU NR4A2 (11747474_a_at) / Fold change /veh NR4A2 (11747474_a_at) / RFU ABCC12 (11746883_a_at) / Fold change /veh ABCC12 (11746883_a_at) / RFU TMEM136 (11760407_x_at) / Fold change /veh TMEM136 (11760407_x_at) / RFU CLDN22 /// WWC2 (11732394_at) / Fold change /veh CLDN22 /// WWC2 (11732394_at) / RFU HLA-DPB1 (11760878_x_at) / Fold change /veh HLA-DPB1 (11760878_x_at) / RFU SPINT1 (11716480_a_at) / Fold change /veh SPINT1 (11716480_a_at) / RFU GAP43 (11754022_s_at) / Fold change /veh GAP43 (11754022_s_at) / RFU A4GNT (11735810_at) / Fold change /veh A4GNT (11735810_at) / RFU PRB3 (11715151_x_at) / Fold change /veh PRB3 (11715151_x_at) / RFU TUBB4B (11761932_at) / Fold change /veh TUBB4B (11761932_at) / RFU CAPN14 (11732068_a_at) / Fold change /veh CAPN14 (11732068_a_at) / RFU TMCC2 (11721928_a_at) / Fold change /veh TMCC2 (11721928_a_at) / RFU IRGQ (11745062_a_at) / Fold change /veh IRGQ (11745062_a_at) / RFU FAM174B (11720279_a_at) / Fold change /veh FAM174B (11720279_a_at) / RFU TMPRSS4 (11748680_a_at) / Fold change /veh TMPRSS4 (11748680_a_at) / RFU FAM212B (11763350_a_at) / Fold change /veh FAM212B (11763350_a_at) / RFU PLEKHG5 (11743358_a_at) / Fold change /veh PLEKHG5 (11743358_a_at) / RFU ZSCAN30 (11745921_a_at) / Fold change /veh ZSCAN30 (11745921_a_at) / RFU CMKLR1 (11741424_a_at) / Fold change /veh CMKLR1 (11741424_a_at) / RFU LOC101060620 /// MAPK8IP1 (11723275_at) / Fold change /veh LOC101060620 /// MAPK8IP1 (11723275_at) / RFU SPTSSB (11747773_x_at) / Fold change /veh SPTSSB (11747773_x_at) / RFU PRSS12 (11739890_at) / Fold change /veh PRSS12 (11739890_at) / RFU BIN1 (11741810_x_at) / Fold change /veh BIN1 (11741810_x_at) / RFU WNT11 (11732464_a_at) / Fold change /veh WNT11 (11732464_a_at) / RFU C10orf10 (11716521_a_at) / Fold change /veh C10orf10 (11716521_a_at) / RFU C5orf56 (11738089_at) / Fold change /veh C5orf56 (11738089_at) / RFU CYB561 (11721691_x_at) / Fold change /veh CYB561 (11721691_x_at) / RFU ANKRD19P (11752326_a_at) / Fold change /veh ANKRD19P (11752326_a_at) / RFU OR2T12 /// OR2T33 /// OR2T8 (11738714_s_at) / Fold change /veh OR2T12 /// OR2T33 /// OR2T8 (11738714_s_at) / RFU VCAN (11748164_a_at) / Fold change /veh VCAN (11748164_a_at) / RFU JSRP1 (11732532_at) / Fold change /veh JSRP1 (11732532_at) / RFU KRTAP10-11 (11738290_x_at) / Fold change /veh KRTAP10-11 (11738290_x_at) / RFU MYO3A (11730013_a_at) / Fold change /veh MYO3A (11730013_a_at) / RFU EBF3 (11725865_a_at) / Fold change /veh EBF3 (11725865_a_at) / RFU CAMK2N1 (11719241_x_at) / Fold change /veh CAMK2N1 (11719241_x_at) / RFU C5orf56 (11738088_a_at) / Fold change /veh C5orf56 (11738088_a_at) / RFU OLFML3 (11715873_a_at) / Fold change /veh OLFML3 (11715873_a_at) / RFU LOC100653217 /// NTM (11731650_a_at) / Fold change /veh LOC100653217 /// NTM (11731650_a_at) / RFU MAPK11 (11762145_a_at) / Fold change /veh MAPK11 (11762145_a_at) / RFU FIZ1 (11724087_x_at) / Fold change /veh FIZ1 (11724087_x_at) / RFU OASL (11726364_x_at) / Fold change /veh OASL (11726364_x_at) / RFU SOX15 (11748057_x_at) / Fold change /veh SOX15 (11748057_x_at) / RFU CD79A (11719716_a_at) / Fold change /veh CD79A (11719716_a_at) / RFU HIST1H1D (11736915_at) / Fold change /veh HIST1H1D (11736915_at) / RFU CASKIN2 (11723855_a_at) / Fold change /veh CASKIN2 (11723855_a_at) / RFU LOC730098 (11760151_x_at) / Fold change /veh LOC730098 (11760151_x_at) / RFU OR4N2 (11742367_at) / Fold change /veh OR4N2 (11742367_at) / RFU PRRT2 (11749266_a_at) / Fold change /veh PRRT2 (11749266_a_at) / RFU SNX32 (11753110_a_at) / Fold change /veh SNX32 (11753110_a_at) / RFU CDHR5 (11726645_a_at) / Fold change /veh CDHR5 (11726645_a_at) / RFU RCAN1 (11760418_a_at) / Fold change /veh RCAN1 (11760418_a_at) / RFU FAM167A (11723789_a_at) / Fold change /veh FAM167A (11723789_a_at) / RFU FAM26E (11764081_at) / Fold change /veh FAM26E (11764081_at) / RFU ISYNA1 (11749810_s_at) / Fold change /veh ISYNA1 (11749810_s_at) / RFU ACY1 (11761880_at) / Fold change /veh ACY1 (11761880_at) / RFU 11764098_at / Fold change /veh 11764098_at / RFU SAMD14 (11745864_x_at) / Fold change /veh SAMD14 (11745864_x_at) / RFU NPB (11741838_a_at) / Fold change /veh NPB (11741838_a_at) / RFU TMPRSS6 (11731388_a_at) / Fold change /veh TMPRSS6 (11731388_a_at) / RFU KRTAP10-2 (11738614_at) / Fold change /veh KRTAP10-2 (11738614_at) / RFU ARHGAP8 /// PRR5-ARHGAP8 (11727945_x_at) / Fold change /veh ARHGAP8 /// PRR5-ARHGAP8 (11727945_x_at) / RFU KRTAP5-7 /// NADSYN1 (11734609_at) / Fold change /veh KRTAP5-7 /// NADSYN1 (11734609_at) / RFU RASL12 (11751679_a_at) / Fold change /veh RASL12 (11751679_a_at) / RFU CDKN2B (11736163_a_at) / Fold change /veh CDKN2B (11736163_a_at) / RFU PRF1 (11729649_at) / Fold change /veh PRF1 (11729649_at) / RFU, ZNF638 /// ZNF638-IT1 / Fold change vs veh, ZNF638 /// ZNF638-IT1 / RFU, PANK3 / Fold change vs veh, PANK3 / RFU, SH3YL1 / Fold change vs veh, SH3YL1 / RFU, ZEB2 / Fold change vs veh, ZEB2 / RFU, NRIP1 / Fold change vs veh, NRIP1 / RFU, PTTG1IP / Fold change vs veh, PTTG1IP / RFU, CAPN2 / Fold change vs veh, CAPN2 / RFU, MED14 / Fold change vs veh, MED14 / RFU, SNORA58 / Fold change vs veh, SNORA58 / RFU, C1orf63 / Fold change vs veh, C1orf63 / RFU, LRRFIP1 / Fold change vs veh, LRRFIP1 / RFU, NDUFAF7 / Fold change vs veh, NDUFAF7 / RFU, SLC12A2 / Fold change vs veh, SLC12A2 / RFU, IBTK / Fold change vs veh, IBTK / RFU, ESF1 / Fold change vs veh, ESF1 / Fold change vs veh, TMEM50B / RFU, TAOK1 / Fold change vs veh, TAOK1 / RFU, ACBD3 / Fold change vs veh, ACBD3 / RFU, TMA16 / Fold change vs veh, TMA16 / RFU, RWDD3 / Fold change vs veh, RWDD3 / RFU, BCAT1 / Fold change vs veh, BCAT1 / RFU, EDEM3 / Fold change vs veh, EDEM3 / RFU, TMEM33 / Fold change vs veh, TMEM33 / RFU, WDR75 / Fold change vs veh, WDR75 / RFU, AHCTF1 / Fold change vs veh, AHCTF1 / RFU, TFRC / Fold change vs veh, TFRC / RFU, ZDHHC17 / Fold change vs veh, ZDHHC17 / RFU, NOM1 / Fold change vs veh, NOM1 / RFU, ARL8B / Fold change vs veh, ARL8B / RFU, ZBTB11 / Fold change vs veh, ZBTB11 / RFU, TAMM41 / Fold change vs veh, TAMM41 / RFU, KIAA1704 /// LOC100996395 / Fold change vs veh, KIAA1704 /// LOC100996395 / RFU, ING1 / Fold change vs veh, ING1 / RFU, TRMT61B / Fold change vs veh, TRMT61B / RFU, FUBP3 / Fold change vs veh, FUBP3 / RFU, TP53 / Fold change vs veh, TP53 / RFU, TNKS2 / Fold change vs veh, TNKS2 / RFU, ZFP14 / Fold change vs veh, ZFP14 / RFU, ACTR2 / Fold change vs veh, ACTR2 / RFU, PPP3R1 / Fold change vs veh, PPP3R1 / RFU, PIK3R1 / Fold change vs veh, PIK3R1 / RFU, HNRNPA1 / Fold change vs veh, HNRNPA1 / RFU, RNF170 / Fold change vs veh, RNF170 / RFU, ZNF28 / Fold change vs veh, ZNF28 / RFU, RNGTT / Fold change vs veh, RNGTT / RFU, OGT / Fold change vs veh, OGT / RFU, BRD1 / Fold change vs veh, BRD1 / RFU, MARS / Fold change vs veh, MARS / RFU, ZNF655 / Fold change vs veh, ZNF655 / RFU, FAHD1 / Fold change vs veh, FAHD1 / RFU, BDP1 / Fold change vs veh, BDP1 / RFU, LRRCC1 / Fold change vs veh, LRRCC1 / RFU, ARID1A / Fold change vs veh, ARID1A / RFU, ZNF146 / Fold change vs veh, ZNF146 / RFU, ZNF330 / Fold change vs veh, ZNF330 / RFU, GPN3 / Fold change vs veh, GPN3 / RFU, C9orf123 / Fold change vs veh, C9orf123 / RFU, N4BP2L2 / Fold change vs veh, N4BP2L2 / RFU, ARFIP1 / Fold change vs veh, ARFIP1 / RFU, FAM179B / Fold change vs veh, FAM179B / RFU, BCL10 / Fold change vs veh, BCL10 / RFU, UHRF1BP1L / Fold change vs veh, UHRF1BP1L / RFU, BET1 / Fold change vs veh, BET1 / RFU, CNOT2 / Fold change vs veh, CNOT2 / RFU, ZNF268 / Fold change vs veh, ZNF268 / Fold change vs veh, ZNF507 / RFU, DGCR2 / Fold change vs veh, DGCR2 / RFU, WDSUB1 / Fold change vs veh, WDSUB1 / Fold change vs veh, HSP90B1 /// MIR3652 / RFU, ADSS / Fold change vs veh, ADSS / RFU, GK / Fold change vs veh, GK / RFU, ZNF148 / Fold change vs veh, ZNF148 / RFU, TAF9 / Fold change vs veh, TAF9 / RFU, SLC1A5 / Fold change vs veh, SLC1A5 / RFU, SLMO2 / Fold change vs veh, SLMO2 / RFU, ABCC4 / Fold change vs veh, ABCC4 / RFU, LOC101060439 /// RAP1B / Fold change vs veh, LOC101060439 /// RAP1B / RFU, RFX7 / Fold change vs veh, RFX7 / RFU, GTPBP10 / Fold change vs veh, GTPBP10 / RFU, CNEP1R1 / Fold change vs veh, CNEP1R1 / RFU, BIVM-ERCC5 /// ERCC5 / Fold change vs veh, BIVM-ERCC5 /// ERCC5 / RFU, ILF3 / Fold change vs veh, ILF3 / RFU 11762660_at / Fold change /veh 11762660_at / RFU VCAN (11757783_s_at) / Fold change /veh VCAN (11757783_s_at) / RFU DDX43 (11728927_at) / Fold change /veh DDX43 (11728927_at) / RFU KRT8 (11758188_x_at) / Fold change /veh KRT8 (11758188_x_at) / RFU NKD1 (11759106_at) / Fold change /veh NKD1 (11759106_at) / RFU SRD5A1 (11742802_a_at) / Fold change /veh SRD5A1 (11742802_a_at) / RFU TPSAB1 /// TPSB2 (11721975_s_at) / Fold change /veh TPSAB1 /// TPSB2 (11721975_s_at) / RFU GSTM3 (11746129_a_at) / Fold change /veh GSTM3 (11746129_a_at) / RFU IL23R (11737362_x_at) / Fold change /veh IL23R (11737362_x_at) / RFU TMEM51 (11727254_a_at) / Fold change /veh TMEM51 (11727254_a_at) / RFU PIWIL2 (11732686_x_at) / Fold change /veh PIWIL2 (11732686_x_at) / RFU ORM1 (11744905_x_at) / Fold change /veh ORM1 (11744905_x_at) / RFU CCDC152 (11743942_at) / Fold change /veh CCDC152 (11743942_at) / RFU ECM1 (11717891_a_at) / Fold change /veh ECM1 (11717891_a_at) / RFU IL23R (11748794_a_at) / Fold change /veh IL23R (11748794_a_at) / RFU TNFAIP8L3 (11732012_x_at) / Fold change /veh TNFAIP8L3 (11732012_x_at) / RFU MBOAT4 (11741988_at) / Fold change /veh MBOAT4 (11741988_at) / RFU 11764193_at / Fold change /veh 11764193_at / RFU TMEM53 (11763286_at) / Fold change /veh TMEM53 (11763286_at) / RFU MAGEB2 (11727129_at) / Fold change /veh MAGEB2 (11727129_at) / RFU TMEM200A (11744735_a_at) / Fold change /veh TMEM200A (11744735_a_at) / RFU CCDC152 (11751479_a_at) / Fold change /veh CCDC152 (11751479_a_at) / RFU FAM211A (11726209_a_at) / Fold change /veh FAM211A (11726209_a_at) / RFU RGS16 (11746705_a_at) / Fold change /veh RGS16 (11746705_a_at) / RFU VCAN (11755009_s_at) / Fold change /veh VCAN (11755009_s_at) / RFU RHOB (11743442_s_at) / Fold change /veh RHOB (11743442_s_at) / RFU RGS16 (11720943_a_at) / Fold change /veh RGS16 (11720943_a_at) / RFU RGS16 (11720944_at) / Fold change /veh RGS16 (11720944_at) / RFU, VPS4B / Fold change vs veh, VPS4B / RFU, CREB1 / Fold change vs veh, CREB1 / RFU, DNAJC13 / Fold change vs veh, DNAJC13 / RFU, GNAQ / Fold change vs veh, GNAQ / RFU, CDK5R1 / Fold change vs veh, CDK5R1 / RFU, ZRANB3 / Fold change vs veh, ZRANB3 / RFU, CUL4A / Fold change vs veh, CUL4A / RFU, CCNY / Fold change vs veh, CCNY / RFU, UFL1 / Fold change vs veh, UFL1 / RFU, COG3 / Fold change vs veh, COG3 / RFU, DIAPH2 / Fold change vs veh, DIAPH2 / RFU, SKA2 / Fold change vs veh, SKA2 / RFU, AFF3 / Fold change vs veh, AFF3 / RFU, LMF1 / Fold change vs veh, LMF1 / RFU, IPO11 / Fold change vs veh, IPO11 / RFU, DFFB / Fold change vs veh, DFFB / RFU, FOXP1 / Fold change vs veh, FOXP1 / RFU, CARD8 / Fold change vs veh, CARD8 / RFU, STRN3 / Fold change vs veh, STRN3 / RFU, ADK / Fold change vs veh, ADK / RFU, RASSF2 / Fold change vs veh, RASSF2 / RFU, WIPF1 / Fold change vs veh, WIPF1 / RFU, LARP1B / Fold change vs veh, LARP1B / RFU, RASA1 / Fold change vs veh, RASA1 / RFU, RB1 / Fold change vs veh, RB1 / RFU, PPFIA1 / Fold change vs veh, PPFIA1 / RFU, MAT2A / Fold change vs veh, MAT2A / RFU, CCT5 / Fold change vs veh, CCT5 / RFU, WDR92 / Fold change vs veh, WDR92 / RFU, CUX1 / Fold change vs veh, CUX1 / RFU, TTC7A / Fold change vs veh, TTC7A / RFU, TMEM135 / Fold change vs veh, TMEM135 / RFU, DEPTOR / Fold change vs veh, DEPTOR / RFU, CPM / Fold change vs veh, CPM / RFU, DNAJB6 / Fold change vs veh, DNAJB6 / RFU, CACNA2D3 / Fold change vs veh, CACNA2D3 / RFU, DTX4 / Fold change vs veh, DTX4 / RFU, TFCP2 / Fold change vs veh, TFCP2 / RFU, GMCL1 /// GMCL1P1 / Fold change vs veh, GMCL1 /// GMCL1P1 / RFU, AEBP2 / Fold change vs veh, AEBP2 / RFU, SNHG1 /// SNORD22 /// SNORD25 /// SNORD26 /// SNORD27 /// SNORD28 /// SNORD29 /// SNORD31 / Fold change vs veh, SNHG1 /// SNORD22 /// SNORD25 /// SNORD26 /// SNORD27 /// SNORD28 /// SNORD29 /// SNORD31 / Fold change (Aza/veh), C12orf56 (ProbeSet 11735607_a_at) / Fold change (ACY-1035/veh), C12orf56 (ProbeSet 11735607_a_at) / Fold change (Aza/veh), FGFR1OP (ProbeSet 11751329_s_at) / Fold change (ACY-1035/veh), FGFR1OP (ProbeSet 11751329_s_at) / Fold change (Aza/veh), VPS36 (ProbeSet 11739960_a_at) / Fold change (ACY-1035/veh), VPS36 (ProbeSet 11739960_a_at) / RFU SYPL1 (11715823_x_at) / Fold change /veh SYPL1 (11715823_x_at) / RFU IGFBP7 (11715501_s_at) / Fold change /veh IGFBP7 (11715501_s_at) / RFU REEP3 (11722064_at) / Fold change /veh REEP3 (11722064_at) / RFU IGLL1 (11728026_x_at) / Fold change /veh IGLL1 (11728026_x_at): dose or concentration left out as unconfirmed
Settings: ProbeSet 11740781_a_at; LIST B

## Nc1ccc(-c2cccs2)cc1NC(=O)c1ccc2c(c1)cc(C1CC1)n2CCN1CCOCC1 [ACY-1035]
  Fold change vs veh, ILF3: 0.88
